{
  "source": "patent US8410168B2",
  "about": "“Methods and compositions for treating ophthalmic conditions with retinyl derivatives” (Acucela, Inc., priority 2004, dated 2013)",
  "key": {"CRALBP": {"target": "T1, CRALBP (Homo sapiens, UniProt P12271)", "T1 construct": "made in house", "T1 sequence (P12271 whole entry, species assumed)": "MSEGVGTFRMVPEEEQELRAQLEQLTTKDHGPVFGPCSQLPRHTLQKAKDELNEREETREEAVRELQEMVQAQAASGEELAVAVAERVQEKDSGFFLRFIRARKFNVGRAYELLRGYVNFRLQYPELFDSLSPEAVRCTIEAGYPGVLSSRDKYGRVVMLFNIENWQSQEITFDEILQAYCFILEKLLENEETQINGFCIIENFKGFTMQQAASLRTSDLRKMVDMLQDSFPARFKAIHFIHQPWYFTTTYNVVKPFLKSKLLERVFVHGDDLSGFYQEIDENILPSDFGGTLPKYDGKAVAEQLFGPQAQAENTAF", "experiment": "Size exclusion chromatography study of binding to CRALBP", "settings": "4 μM apo-CRALBP, 8 μM ligand", "description": "Apo-CRALBP at 4 μM was incubated with 8 μM of 11cRAL, atRAL or HPR in PBS at room temperature for 1 hour. In control experiment, equivalent volume of DMSO was added to the CRALBP solution. 50 μl of each sample mixture was analyzed by BioRad Bio-Sil SEC125 Gel Filtration Column (300×7.8 mm)."}, "apo-CRALBP": {"target": "T2, apo-CRALBP (Homo sapiens, UniProt P12271)", "T2 construct": "made in house", "T2 sequence (P12271 whole entry, species assumed)": "as above", "experiment": "Ni+ affinity column and spectroscopic analysis of binding to CRALBP", "settings": "10 μM apo-CRALBP, 20 μM ligand", "description": "In order to confirm data obtained during fluorescence analysis of HPR binding to CRALBP, a second analysis was performed using affinity chromatography and spectroscopic analysis. The recombinant apo-CRALBP was constructed with a histidine tag which is utilized to purify the protein on a Ni+ affinity column following expression cloning. Here, we utilized this feature of apo-CRALBP to specifically “trap” the protein and any protein-ligand species for spectroscopic analysis. Two binding mixtures were prepared containing apo-CRALBP (10 μM) and either 11cRAL (20 μM) or HPR (20 μM). In control experiments for the analysis of non-specific ligand binding onto the affinity matrix, we prepared two additional mixtures containing only 11cRAL (20 μM) or HPR (20 μM) in binding buffer. The binding mixtures were passed through separate Ni+ affinity columns and the columns were washed extensively to elute unbound protein and ligand. Following the addition of elution buffer, the eluted fractions were analyzed by spectroscopy. […] Instead, two absorption maxima are seen: one at 280 nm and a second at 360 nm, which is attributable to the absorption of HPR (see FIG. 14)."}},
  "data": [
    {"smiles": "CC1=C(/C=C/C(C)=C/C=C/C(C)=C/C(=O)Nc2ccc(O)cc2)C(C)(C)CCC1", "note": "[HPR, N-(4-hydroxyphenyl)retinamide]", "values": [
      {"measurement": "ligand bound to CRALBP (monomer elution peak absorbance)", "setting": "CRALBP", "result": "only small amount of HPR is bound to CRALBP"},
      {"measurement": "binding to apo-CRALBP by absorption spectra of eluted fraction", "setting": "apo-CRALBP", "result": "binds apo-CRALBP"}
    ]}
  ]
}
